In ChEMBL document CHEMBL3639359, “Compounds as cannabinoid receptor ligands” (2014):
pKi: −log10 of the molar value.

Tests used:
[1] = biological target: T1, Cannabinoid receptor 2 (Rattus norvegicus, UniProt Q9QZN9); experiment: Radioligand Binding Assay: HEK293 cells stably expressing rat CB2 receptors were grown until a confluent monolayer was formed. Briefly, the cells were harvested and homogenized in TE buffer (50 mM Tris-HCl, 1 mM MgCl2, and 1 mM EDTA) using a polytron for 2x 10 second bursts in the presence of protease inhibitors, followed by centrifugation at 45,000x g for 20 minutes. The final membrane pellet was re-homogenized in storage buffer (50 mM Tris-HCl, 1 mM MgCl2, and 1 mM EDTA and 10% sucrose) and frozen at -78 C. until used. Saturation binding reactions were initiated by the addition of membrane preparation (protein concentration of 20 ug/well for rat CB2) into wells of a deep well plate containing [3H]CP 55,940 (120 Ci/mmol, a nonselective CB agonist commercially available from Tocris) in assay buffer (50 mM Tris, 2.5 mM EDTA, 5 mM MgCl2, and 0.5 mg/mL fatty acid free BSA, pH 7.4). After 45 min incubation at 30u C., binding reaction was terminated by the addition of 300 ul/well of cold assay buffer.; assay type: cell membranes
T1 sequence (Q9QZN9 whole entry): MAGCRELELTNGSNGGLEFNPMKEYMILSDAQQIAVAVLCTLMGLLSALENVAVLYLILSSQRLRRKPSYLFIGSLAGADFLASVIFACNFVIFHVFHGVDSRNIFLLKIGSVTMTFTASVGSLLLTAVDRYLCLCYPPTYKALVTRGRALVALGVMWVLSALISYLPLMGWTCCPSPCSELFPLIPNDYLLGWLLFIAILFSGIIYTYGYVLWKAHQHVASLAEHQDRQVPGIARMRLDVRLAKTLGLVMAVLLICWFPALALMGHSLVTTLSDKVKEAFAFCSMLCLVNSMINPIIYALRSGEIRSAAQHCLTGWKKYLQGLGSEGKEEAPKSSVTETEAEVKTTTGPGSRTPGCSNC

[2] = biological target: Cannabinoid receptor 2 (Homo sapiens, UniProt P34972); experiment: Radioligand Binding Assay: HEK293 cells stably expressing human CB2 receptors were grown until a confluent monolayer was formed. Briefly, the cells were harvested and homogenized in TE buffer (50 mM Tris-HCl, 1 mM MgCl2, and 1 mM EDTA) using a polytron for 2x 10 second bursts in the presence of protease inhibitors, followed by centrifugation at 45,000xg for 20 minutes. The final membrane pellet was re-homogenized in storage buffer (50 mM Tris-HCl, 1 mM MgCl2, and 1 mM EDTA and 10% sucrose) and frozen at -78 C. until used. Saturation binding reactions were initiated by the addition of membrane preparation (protein concentration of 5 ug/well for human CB2) into wells of a deep well plate containing [3H]CP 55,940 (120 Ci/mmol, a nonselective CB agonist commercially available from Tocris) in assay buffer (50 mM Tris, 2.5 mM EDTA, 5 mM MgCl2, and 0.5 mg/mL fatty acid free BSA, pH 7.4). After 90 min incubation at 30 C., binding reaction was terminated by the addition of 300 uL/well of cold assay buffer.; assay type: cell membranes
Chain of Cannabinoid receptor 2 (Homo sapiens, UniProt P34972) (P34972 whole entry): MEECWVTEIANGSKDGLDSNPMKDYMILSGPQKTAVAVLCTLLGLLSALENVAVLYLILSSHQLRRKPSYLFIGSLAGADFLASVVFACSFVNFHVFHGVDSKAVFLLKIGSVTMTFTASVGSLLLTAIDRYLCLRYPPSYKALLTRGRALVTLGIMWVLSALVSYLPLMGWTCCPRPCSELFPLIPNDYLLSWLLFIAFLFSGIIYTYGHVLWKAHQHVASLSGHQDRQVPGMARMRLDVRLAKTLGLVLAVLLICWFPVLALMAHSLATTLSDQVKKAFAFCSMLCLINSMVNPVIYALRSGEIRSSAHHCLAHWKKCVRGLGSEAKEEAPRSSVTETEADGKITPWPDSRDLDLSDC

With `CCCCn1nc(C(C)(C)C)s/c1=N\C(=O)c1cc(C(F)(F)F)ccc1ON=C(C)C` the pKi [1] was 8.28 and the pKi [2] was 7.92.
